≈ marks a conversion by molar mass, not a printed value.

We go through eight compounds from ChEMBL document CHEMBL1156359, “New cytotoxic sesterterpenes from the sponge Sarcotragus species” (2001).

Holding throughout (assay type): functional
Details in all cases: read-out: ED50 (the source's name)

One assay has as its system XF498. The experiment in a line: Cytotoxicity against human XF498 cells.
The subject of a further assay is A549. As to the kind of experiment: Cytotoxicity against human A549 cells.
In a further assay the test system is HCT-15. The experiment in a line: Cytotoxicity against human HCT15 cells.
The subject of the next assay is SK-MEL-2. As to the kind of experiment: Cytotoxicity against human SK-MEL-2 cells.
The subject of the next assay is SK-OV-3. The experiment in a line: Cytotoxicity against human SKOV3 cells.

Turning to `CC1=C(O)[C@@H](C/C(C)=C\CC/C(C)=C/CC/C(C)=C/CCc2ccoc2)OC1=O`, the EC50 was found to be 20.4 µg/mL (≈ 51.2 µM) in the assay with XF498; 16.9 µg/mL (≈ 42.4 µM) in the assay on A549; 27.5 µg/mL (≈ 69 µM) in the assay with HCT-15; 16.3 µg/mL (≈ 40.9 µM) in the assay on SK-MEL-2; 26.8 µg/mL (≈ 67.3 µM) in the assay on SK-OV-3.
With `COc1cccc2c1C(=O)c1c(O)c3c(c(O)c1C2=O)C[C@@](O)(C(=O)CO)C[C@@H]3O[C@H]1C[C@H](N)[C@H](O)[C@H](C)O1` [DOXORUBICIN], the EC50 is 0.08 µg/mL (≈ 0.147 µM) with XF498; 0.02 µg/mL (≈ 0.0368 µM) in the assay on A549; 0.04 µg/mL (≈ 0.0736 µM) with HCT-15; 0.02 µg/mL (≈ 0.0368 µM) in the assay with SK-MEL-2; 0.11 µg/mL (≈ 0.202 µM) in the assay on SK-OV-3.
In the case of `CC1=C(O)/C(=C/[C@H](C)CCC/C(C)=C/CCc2coc(Cc3ccoc3)c2)OC1=O` [IRCININ 1], the EC50 came to 5.42 µg/mL (≈ 13.2 µM) in the assay with XF498; 3.72 µg/mL (≈ 9.06 µM) in the assay on A549; 6.91 µg/mL (≈ 16.8 µM) with HCT-15; 8.95 µg/mL (≈ 21.8 µM) with SK-MEL-2; 6.55 µg/mL (≈ 16 µM) in the assay on SK-OV-3.
Taken in the same sequence, the figures for `CC1=C(O)/C(=C/[C@H](C)CC/C=C(/C)CCCc2coc(Cc3ccoc3)c2)OC1=O` [IRCININ 2] were 3.7 µg/mL (≈ 9.01 µM), 3.8 µg/mL (≈ 9.26 µM), 4.74 µg/mL (≈ 11.5 µM), 5.87 µg/mL (≈ 14.3 µM) and 5.9 µg/mL (≈ 14.4 µM).
As for `CC1=C(O)[C@@H](C/C(C)=C\CCC(C)/C=C/C=C(\C)CCCc2ccoc2)OC1=O` (stereo not given in full) [SARCOTIN A], the EC50 is 24.8 µg/mL (≈ 62.3 µM) with XF498; 29.7 µg/mL (≈ 74.5 µM) with A549; 27.2 µg/mL (≈ 68.2 µM) with HCT-15; > 30 µg/mL with SK-MEL-2; 22.1 µg/mL (≈ 55.4 µM) with SK-OV-3.
In the same order, the values of `CC1=C(O)[C@H](C/C(C)=C\CCC(C)/C=C\C=C(\C)CCCc2ccoc2)OC1=O` (stereo not given in full) [SARCOTIN B] are 8.89 µg/mL (≈ 22.3 µM), 10.1 µg/mL (≈ 25.3 µM), 8.95 µg/mL (≈ 22.5 µM), 7.78 µg/mL (≈ 19.5 µM) and 11.3 µg/mL (≈ 28.4 µM).
On to `CC1=C(O)/C(=C\[C@H](C)CCC/C(C)=C/CCc2coc(Cc3ccoc3)c2)OC1=O` [SARCOTIN D], for which the EC50 was 6.52 µg/mL (≈ 15.9 µM) in the assay with XF498; 4.98 µg/mL (≈ 12.1 µM) in the assay on A549; 9.82 µg/mL (≈ 23.9 µM) in the assay with HCT-15; 10.2 µg/mL (≈ 24.8 µM) with SK-MEL-2; 9.39 µg/mL (≈ 22.9 µM) with SK-OV-3.
Take `CC1=C(O)/C(=C\[C@H](C)CC/C=C(/C)CCCc2coc(Cc3ccoc3)c2)OC1=O` [SARCOTIN E]: the EC50 with XF498 amounted to 5 µg/mL (≈ 12.2 µM); in the assay on A549 it was 3.8 µg/mL (≈ 9.26 µM); in the assay with HCT-15, 7.31 µg/mL (≈ 17.8 µM); in the assay on SK-MEL-2, 8.37 µg/mL (≈ 20.4 µM); in the assay with SK-OV-3 it was 6.24 µg/mL (≈ 15.2 µM).
